This is an account of results in US7713994B2 (Wyeth LLC, priority 2005, dated 2010).

The target in experiment [1] is T1, cyclin B/CDK1 enzyme (Homo sapiens, UniProt P06493).
T1 construct: purchased New England BioLabs; host or cells: Sf9 insect cells, recombinant baculovirus
Put plainly: CDK1 ELISA kinase assay (phospho-Rb ser 795 detection). It is filed as biochemical. In outline: (§1)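 GST-Rb C-terminal fragment coated on plates; partially purified Sf9-expressed cyclin D1/CDK4, cyclin E/CDK2 or cyclin B/CDK1 with 200 μM ATP, pH 7.5 HEPES/MgCl2 buffer, 1 h at 30 °C; screen compound final 10 μg/ml. Phospho-Rb Ser795 detected by antibody ELISA (TMB, A450); % of control, IC50 from background-subtracted inhibition curves.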

The subject of experiment [2] is LoVo. Kind of experiment: Cytotoxicity assay (SRB), LoVo. In kind it is cell-based. Particulars: LoVo cells, 3 days, SRB, read-out: In Vitro Cellular Activity IC50 LOVO. An outline of the steps: (§2)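 Seeding: BT474 12000, HCT-116 4000, LoVo 6000, MCF-7 6000 cells/well; overnight attachment, 37 °C, 7% CO2. Drug exposure 3 d (BT474 6 d), RPMI 1640 + 5% FBS. Readout: TCA fix, 0.4% SRB, Tris solubilisation, A540.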

Experiment [3] addresses T2, cyclin D1/cdk 4 enzyme (Homo sapiens, UniProt P11802).
T2 construct: made in house; host or cells: Sf9 insect cells, recombinant baculovirus
Kind of experiment: CDK4 ELISA kinase assay (phospho-Rb ser 795 detection). It is filed as biochemical. An outline of the steps: as §1

In experiment [4] the target is T3, cyclin E/CDK2 enzyme (Homo sapiens, UniProt P24941).
T3 construct: made in house; host or cells: Sf9 insect cells, recombinant baculovirus
Put plainly: CDK2 ELISA kinase assay (phospho-Rb ser 795 detection). In kind it is biochemical. In outline: as §1
(An ELISA detects its analyte on a solid surface through an enzyme-linked reagent.)

Experiment [5] deals with BT474. Put plainly: Cytotoxicity assay (SRB), BT474. In kind it is cell-based. Particulars: BT474 cells, 6 days, SRB, read-out: In Vitro Cellular Activity IC50 BT474. An outline of the steps: as §2
Experiment [6] has as its system HCT-116. Put plainly: Cytotoxicity assay (SRB), HCT-116. It is filed as cell-based. Particulars: HCT116 cells, 3 days, SRB, read-out: In Vitro Cellular Activity IC50 HCT116. In outline:
as §2

Experiment [7] deals with MCF-7. Put plainly: Cytotoxicity assay (SRB), MCF-7. The following applies: MCF-7 cells, 3 days, SRB, read-out: In Vitro Cellular Activity IC50 MCF-7. It is filed as cell-based. In outline: as §2
[8] abbreviates: In Vitro Enzyme Assays, read-out: CDK1 IC50.
Where [9] appears, read: In Vitro Enzyme Assays, 200 μM ATP, read-out: CDK4 IC50.
Where [10] appears, read: In Vitro Enzyme Assays, read-out: CDK2 IC50.
Where [11] appears, read: In Vitro Enzyme Assay, cyclin B/CDK1, read-out: CDK1 IC50.
Where [12] appears, read: In Vitro Enzyme Assay, cyclin D1/cdk 4, read-out: CDK4 IC50.
Setting [13] is: In Vitro Enzyme Assay, cyclin E/CDK2, read-out: CDK2 IC50.

Read-outs that look alike come from different tables or passages of the source. Some results are limits rather than exact numbers.

T2 sequence (P11802 whole entry, species assumed): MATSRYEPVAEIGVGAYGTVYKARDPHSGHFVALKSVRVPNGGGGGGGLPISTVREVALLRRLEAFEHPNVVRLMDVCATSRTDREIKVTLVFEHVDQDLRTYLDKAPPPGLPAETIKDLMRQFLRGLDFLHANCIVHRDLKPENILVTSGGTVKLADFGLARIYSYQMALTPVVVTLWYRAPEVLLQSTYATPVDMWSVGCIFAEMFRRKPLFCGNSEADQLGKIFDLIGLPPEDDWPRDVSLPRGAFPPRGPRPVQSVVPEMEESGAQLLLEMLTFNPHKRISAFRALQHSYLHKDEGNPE
T2 sequence (P24385 whole entry partner, species assumed): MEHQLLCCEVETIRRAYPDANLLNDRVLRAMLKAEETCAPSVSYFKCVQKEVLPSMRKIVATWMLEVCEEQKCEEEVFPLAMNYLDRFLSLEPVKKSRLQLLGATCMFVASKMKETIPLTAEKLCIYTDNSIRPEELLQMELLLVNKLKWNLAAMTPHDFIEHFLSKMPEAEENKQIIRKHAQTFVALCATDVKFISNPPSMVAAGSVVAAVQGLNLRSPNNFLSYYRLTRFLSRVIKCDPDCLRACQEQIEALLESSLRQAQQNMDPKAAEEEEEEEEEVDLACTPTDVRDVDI
T1 sequence (P06493 whole entry): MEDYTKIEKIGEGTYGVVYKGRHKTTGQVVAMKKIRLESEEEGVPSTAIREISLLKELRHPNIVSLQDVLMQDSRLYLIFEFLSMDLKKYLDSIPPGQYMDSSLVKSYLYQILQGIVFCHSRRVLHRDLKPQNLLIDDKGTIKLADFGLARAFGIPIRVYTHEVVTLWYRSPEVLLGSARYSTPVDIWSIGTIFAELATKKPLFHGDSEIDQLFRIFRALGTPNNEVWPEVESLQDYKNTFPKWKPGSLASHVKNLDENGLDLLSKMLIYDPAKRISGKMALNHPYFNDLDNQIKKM
T1 sequence (P14635 whole entry partner): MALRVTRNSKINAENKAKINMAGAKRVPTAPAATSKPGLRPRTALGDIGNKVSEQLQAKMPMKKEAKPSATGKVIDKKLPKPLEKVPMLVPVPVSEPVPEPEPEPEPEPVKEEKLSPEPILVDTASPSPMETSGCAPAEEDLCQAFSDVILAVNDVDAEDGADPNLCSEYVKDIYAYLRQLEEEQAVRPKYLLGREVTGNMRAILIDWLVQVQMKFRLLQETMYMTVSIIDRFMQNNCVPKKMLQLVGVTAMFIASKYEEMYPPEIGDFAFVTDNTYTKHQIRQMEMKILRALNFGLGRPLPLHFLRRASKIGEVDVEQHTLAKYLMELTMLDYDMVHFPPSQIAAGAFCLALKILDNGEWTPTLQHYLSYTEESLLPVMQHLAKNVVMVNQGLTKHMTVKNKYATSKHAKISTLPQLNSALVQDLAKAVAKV

The IC50 is the concentration that inhibits the measured activity by half. With `CN1CCCC1c1ccc(N/C=C2\C(=O)NC(=O)c3ccc(-c4cccs4)cc32)cc1` (centres unmarked) [Example 450, 4-{[4-(1-Methyl-pyrrolidin-2-yl)-phenylamino]-methylene}-6-thiophen-2-yl-4H-isoquinoline-1,3-dione], the IC50 in experiment [1] (setting [8]) is > 50000 nM; in experiment [2] (Homo sapiens, LoVo, 72 h), 2800 nM; in experiment [3] (setting [9]) it was 180 nM; in experiment [4] (setting [10]), > 50000 nM; in experiment [5] (Homo sapiens, BT-474, 144 h) it was 1900 nM; in experiment [6] (Homo sapiens, HCT-116, 72 h) it was 2500 nM. In experiment [7] (Homo sapiens, MCF7, 72 h), the 50% inhibitory concentration (IC50) amounted to 2500 nM.
Regarding `CN1CCCC1c1ccc(N/C=C2\C(=O)NC(=O)c3ccc(-c4ccoc4)cc32)cc1` (centres unmarked) [Example 451, 6-Furan-3-yl-4-{[4-(1-methyl-pyrrolidin-2-yl)-phenylamino]-methylene}-4H-isoquinoline-1,3-dione], the IC50 in experiment [1] (setting [8]) was > 50000 nM; in experiment [2] (Homo sapiens, LoVo, 72 h) it was 2500 nM; in experiment [3] (setting [9]) it was 60 nM; in experiment [4] (setting [10]), > 50000 nM; in experiment [5] (Homo sapiens, BT-474, 144 h) it was 1000 nM; in experiment [6] (Homo sapiens, HCT-116, 72 h) it was 2800 nM. Moreover, the IC50 in experiment [7] (Homo sapiens, MCF7, 72 h) turned out to be 1000 nM.
For `Cn1ccc(CN/C=C2\C(=O)NC(=O)c3ccc(I)cc32)cc1=O` [Example 453, (4Z)-6-Iodo-4-({[(1-methyl-2-oxo-1,2-dihydropyridin-4-yl)methyl]amino}methylene)isoquinoline-1,3(2H,4H)-dione], the IC50 worked out at 12600 nM in experiment [1] (setting [8]); 3300 nM in experiment [2] (Homo sapiens, LoVo, 72 h); 60 nM in experiment [3] (setting [9]); 1000 nM in experiment [4] (setting [10]); 4000 nM in experiment [5] (Homo sapiens, BT-474, 144 h); 3700 nM in experiment [6] (Homo sapiens, HCT-116, 72 h). Further, the 50% inhibitory concentration (IC50) in experiment [7] (Homo sapiens, MCF7, 72 h) amounted to 4300 nM.
Turning to `CN(C)CC1CCN(c2ccc(N/C=C3\C(=O)NC(=O)c4ccc(I)cc43)cc2)CC1` [Example 454, (4Z)-4-{[(4-{4-[(Dimethylamino)methyl]piperidin-1-yl}phenyl)amino]methylene}-6-iodoisoquinoline-1,3(2H,4H)-dione], the 50% inhibitory concentration (IC50) in experiment [1] (setting [8]) was > 50000 nM; in experiment [2] (Homo sapiens, LoVo, 72 h), 10500 nM; in experiment [3] (setting [9]) it was 360 nM; in experiment [4] (setting [10]) it was > 50000 nM; in experiment [5] (Homo sapiens, BT-474, 144 h), 10500 nM; in experiment [6] (Homo sapiens, HCT-116, 72 h) it was 7400 nM. Moreover, the IC50 in experiment [7] (Homo sapiens, MCF7, 72 h) turned out to be 11500 nM.
On to `CN1CCC(N(C)CC2CCN(c3ccc(N/C=C4\C(=O)NC(=O)c5ccc(I)cc54)cc3)CC2)C1` (centres unmarked) [Example 455, (4Z)-6-Iodo-4-({[4-(4-{[methyl(1-methylpyrrolidin-3-yl)amino]methyl}piperidin-1-yl)phenyl]amino}methylene)isoquinoline-1,3(2H,4H)-dione], for which the IC50 was > 50000 nM in experiment [1] (setting [8]); 3300 nM in experiment [2] (Homo sapiens, LoVo, 72 h); 5000 nM in experiment [3] (setting [9]); > 50000 nM in experiment [4] (setting [10]); 3100 nM in experiment [5] (Homo sapiens, BT-474, 144 h); 2400 nM in experiment [6] (Homo sapiens, HCT-116, 72 h). The 50% inhibitory concentration (IC50) in experiment [7] (Homo sapiens, MCF7, 72 h) worked out at 3100 nM.
With `CCNCC1CCN(c2ccc(N/C=C3\C(=O)NC(=O)c4ccc(I)cc43)cc2)CC1` [Example 456, (4Z)-4-{[(4-{4-[(Ethylamino)methyl]piperidin-1-yl}phenyl)amino]methylene}-6-iodoisoquinoline-1,3(2H,4H)-dione], the half-inhibitory concentration (IC50) is > 50000 nM in experiment [1] (setting [11]); 8300 nM in experiment [2] (Homo sapiens, LoVo, 72 h); 470 nM in experiment [3] (setting [12]); > 50000 nM in experiment [4] (setting [13]); 9200 nM in experiment [5] (Homo sapiens, BT-474, 144 h); 2700 nM in experiment [6] (Homo sapiens, HCT-116, 72 h). Further, the 50% inhibitory concentration (IC50) in experiment [7] (Homo sapiens, MCF7, 72 h) worked out at 11000 nM.
For `CN1CCN(c2ccc(N/C=C3\C(=O)NC(=O)c4ccc(-c5ccoc5)cc43)c(F)n2)CC1` [Example 457, (4Z)-4-({[2-Fluoro-6-(4-methylpiperazin-1-yl)pyridin-3-yl]amino}methylene)-6-(3-furyl)isoquinoline-1,3(2H,4H)-dione], the concentration for half-maximal inhibition (IC50) in experiment [1] (setting [11]) turned out to be 24200 nM; in experiment [2] it was 1000 nM; in experiment [3] (setting [12]), 190 nM; in experiment [4] (setting [13]), 19400 nM; in experiment [5], 1600 nM; in experiment [6], 960 nM. Moreover, in experiment [7], the concentration for half-maximal inhibition (IC50) stood at 2100 nM.
Turning to `O=C1NC(=O)c2ccc(I)cc2/C1=C/Nc1ccc(C2CCCN2)cc1` (centres unmarked) [Example 462, 6-Iodo-4-[(4-pyrrolidin-2-yl-phenylamino)-methylene]-4H-isoquinoline-1,3-dione], the IC50 in experiment [1] (setting [11]) was > 50000 nM; in experiment [2] (Homo sapiens, LoVo, 72 h), 3600 nM; in experiment [3] (setting [12]) it was 420 nM; in experiment [4] (setting [13]), > 50000 nM; in experiment [5] (Homo sapiens, BT-474, 144 h), 4800 nM; in experiment [6] (Homo sapiens, HCT-116, 72 h), 2600 nM. Moreover, the IC50 in experiment [7] (Homo sapiens, MCF7, 72 h) was determined as 3500 nM.
Regarding `O=C1NC(=O)c2ccc(-c3ccoc3)cc2/C1=C/Nc1ccc(CN2CCC[C@H]2CO)cc1` [Example 463, 6-Furan-3-yl-4-{[4-(2-hydroxymethyl-pyrrolidin-1-ylmethyl)-phenylamino]-methylene}-4H-isoquinoline-1,3-dione], the IC50 is > 50000 nM in experiment [1] (setting [11]); 2000 nM in experiment [2] (Homo sapiens, LoVo, 72 h); 60 nM in experiment [3] (setting [12]); > 50000 nM in experiment [4] (setting [13]); 1700 nM in experiment [5] (Homo sapiens, BT-474, 144 h); 2300 nM in experiment [6] (Homo sapiens, HCT-116, 72 h). For the same compound, the IC50 in experiment [7] (Homo sapiens, MCF7, 72 h) was found to be 900 nM.
As for `O=C1NC(=O)c2ccc(I)cc2/C1=C/Nc1ccc(C2CCCN2CCO)cc1` (centres unmarked) [Example 464, 4-({4-[1-(2-Hydroxy-ethyl)-pyrrolidin-2-yl]-phenylamino}-methylene)-6-iodo-4H-isoquinoline-1,3-dione], the 50% inhibitory concentration (IC50) in experiment [1] (setting [11]) was > 50000 nM; in experiment [2] (Homo sapiens, LoVo, 72 h), 4600 nM; in experiment [3] (setting [12]) it was 140 nM; in experiment [4] (setting [13]) it was > 50000 nM; in experiment [5] (Homo sapiens, BT-474, 144 h), 6600 nM; in experiment [6] (Homo sapiens, HCT-116, 72 h) it was 3200 nM. The IC50 in experiment [7] (Homo sapiens, MCF7, 72 h) turned out to be 2400 nM.
With `CCN1CCCC1c1ccc(N/C=C2\C(=O)NC(=O)c3ccc(I)cc32)cc1` (centres unmarked) [Example 465, 4-{[4-(1-Ethyl-pyrrolidin-2-yl)-phenylamino]-methylene}-6-iodo-4H-isoquinoline-1,3-dione], the IC50 is > 50000 nM in experiment [1] (setting [11]); 5000 nM in experiment [2] (Homo sapiens, LoVo, 72 h); 180 nM in experiment [3] (setting [12]); 22000 nM in experiment [4] (setting [13]); 3800 nM in experiment [5] (Homo sapiens, BT-474, 144 h); 2900 nM in experiment [6] (Homo sapiens, HCT-116, 72 h). Also, the half-inhibitory concentration (IC50) in experiment [7] (Homo sapiens, MCF7, 72 h) is 1300 nM.
On to `O=C1NC(=O)c2ccc(-c3ccco3)cc2/C1=C/Nc1ccc(CN2CCC[C@H]2CO)cc1` [Example 466, 6-Furan-2-yl-4-{[4-(2-hydroxymethyl-pyrrolidin-1-ylmethyl)-phenylamino]-methylene}-4H-isoquinoline-1,3-dione], for which the 50% inhibitory concentration (IC50) in experiment [1] (setting [11]) was > 50000 nM; in experiment [2] (Homo sapiens, LoVo, 72 h), 2100 nM; in experiment [3] (setting [12]) it was 130 nM; in experiment [4] (setting [13]), > 50000 nM; in experiment [5] (Homo sapiens, BT-474, 144 h), 1400 nM; in experiment [6] (Homo sapiens, HCT-116, 72 h), 2100 nM. Moreover, in experiment [7] (Homo sapiens, MCF7, 72 h), the half-maximal inhibitory concentration (IC50) came to 1200 nM.
As to `O=C1NC(=O)c2ccc(-c3nccs3)cc2/C1=C/Nc1ccc(CN2CCC[C@H]2CO)cc1` [Example 472, 4-{[4-(2-Hydroxymethyl-pyrrolidin-1-ylmethyl)-phenylamino]-methylene}-6-thiazol-2-yl-4H-isoquinoline-1,3-dione], the IC50 is > 50000 nM in experiment [1] (setting [11]); 8900 nM in experiment [2] (Homo sapiens, LoVo, 72 h); 600 nM in experiment [3] (setting [12]); > 50000 nM in experiment [4] (setting [13]); 9100 nM in experiment [5] (Homo sapiens, BT-474, 144 h); 5000 nM in experiment [6] (Homo sapiens, HCT-116, 72 h). In addition, in experiment [7] (Homo sapiens, MCF7, 72 h), the IC50 was 14200 nM.
Consider `CCN1CCCC1c1ccc(N/C=C2\C(=O)NC(=O)c3ccc(-c4ccoc4)cc32)cc1` (centres unmarked) [Example 473, 4-{[4-(1-Ethyl-pyrrolidin-2-yl)-phenylamino]-methylene}-6-furan-3-yl-4H-isoquinoline-1,3-dione], for which the IC50 in experiment [1] (setting [11]) was > 50000 nM; in experiment [2] (Homo sapiens, LoVo, 72 h), 2300 nM; in experiment [3] (setting [12]), 50 nM; in experiment [4] (setting [13]) it was > 50000 nM; in experiment [5] (Homo sapiens, BT-474, 144 h) it was 1500 nM; in experiment [6] (Homo sapiens, HCT-116, 72 h) it was 2400 nM. The IC50 in experiment [7] (Homo sapiens, MCF7, 72 h) came out at 2000 nM.
